Usually IC50 stands for the midpoint of a concentration-inhibition curve. For orientation: GI50 means the concentration at which growth is held to half of that of the control.

Molecules are shown by their SMILES.

The source of these data is patent US20240408216A1, “PROTEIN INHIBITOR OR DEGRADING AGENT, PHARMACEUTICAL COMPOSITION CONTAINING SAME AND PHARMACEUTICAL USE” (JING MEDICINE TECHNOLOGY (SHANGHAI) LTD., priority 2021, published 2024).

BaF3 (EGFR L858R/C797S), sequence (P00533 whole entry C797S/L858R): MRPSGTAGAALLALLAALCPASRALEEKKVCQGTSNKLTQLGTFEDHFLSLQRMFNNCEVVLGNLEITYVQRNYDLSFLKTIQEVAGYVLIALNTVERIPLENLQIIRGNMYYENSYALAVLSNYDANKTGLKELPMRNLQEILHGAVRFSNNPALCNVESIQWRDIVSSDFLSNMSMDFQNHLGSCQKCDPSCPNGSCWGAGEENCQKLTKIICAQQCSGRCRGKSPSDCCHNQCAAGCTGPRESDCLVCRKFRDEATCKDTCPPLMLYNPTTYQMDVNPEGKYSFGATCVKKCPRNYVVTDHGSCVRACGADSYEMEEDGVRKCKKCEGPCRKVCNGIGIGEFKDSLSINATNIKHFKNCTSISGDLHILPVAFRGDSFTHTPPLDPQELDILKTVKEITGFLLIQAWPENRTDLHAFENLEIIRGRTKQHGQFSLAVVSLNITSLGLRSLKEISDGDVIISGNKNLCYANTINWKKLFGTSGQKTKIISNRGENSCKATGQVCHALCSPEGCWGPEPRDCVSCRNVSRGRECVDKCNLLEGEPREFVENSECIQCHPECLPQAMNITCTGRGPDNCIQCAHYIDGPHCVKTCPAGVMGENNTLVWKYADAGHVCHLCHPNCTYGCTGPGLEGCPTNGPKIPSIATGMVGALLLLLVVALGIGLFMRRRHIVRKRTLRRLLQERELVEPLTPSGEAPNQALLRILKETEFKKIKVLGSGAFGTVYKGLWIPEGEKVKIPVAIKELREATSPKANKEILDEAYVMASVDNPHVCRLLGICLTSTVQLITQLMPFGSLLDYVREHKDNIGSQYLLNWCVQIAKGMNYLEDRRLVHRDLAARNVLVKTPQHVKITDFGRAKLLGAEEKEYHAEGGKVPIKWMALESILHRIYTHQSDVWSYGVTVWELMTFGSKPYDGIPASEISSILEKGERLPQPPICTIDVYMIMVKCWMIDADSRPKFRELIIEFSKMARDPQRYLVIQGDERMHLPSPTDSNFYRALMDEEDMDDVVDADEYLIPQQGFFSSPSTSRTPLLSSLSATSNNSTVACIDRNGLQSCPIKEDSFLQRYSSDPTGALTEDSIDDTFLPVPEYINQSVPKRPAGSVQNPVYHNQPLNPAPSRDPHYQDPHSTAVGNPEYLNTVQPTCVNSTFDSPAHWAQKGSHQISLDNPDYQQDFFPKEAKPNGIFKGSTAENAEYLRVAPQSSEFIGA

One assay deals with DT. In words: Cell proliferation IC50 assay (Cell Titer GLO), DT cells. The note with it: Mus musculus; Table 7; DT cells (BaF3 with EGFR mutant), 72 h. The format is cell-based. The procedure: (§1) IC50 of compounds in the present invention was determined by Cell Titer GLO reagent from Promega. The procedures are as follows:
(§2) Tumor cells were cultured in specified medium in an incubator at 37° C. and 5% CO2. The cells were passaged periodically. Cells at the logarithmic growth phase were collected for plating at a density of 2000-4000 cells/well. The next day, the compounds of the present invention were serially diluted and added to the cells, with DMSO being the negative control and the culture media without cells being the blank control. The plate was incubated in the incubator for 72 h. The cell viability assay was performed by adding the detection reagents to the cell culture media according to Cell Titer GLO reagent instructions and detecting luminescent signals on an EnVision microplate reader (PerkinElmer).
(§3) Inhibition of cell growth by the compounds of the present invention was plotted by Prism Graphpad software for statistically calculating the IC50 of the compound of the present invention.
A general note: Cellular ATP, detected with luciferase, serves as a proxy for viable cell number.
`CCc1cc(Nc2ncc(-c3cnn(C)c3)c(Nc3ccccc3P(C)(C)=O)n2)c(OC)cc1N1CCC(N2CCN(CCOc3cccc4c3CN(C3CCC(=O)NC3=O)C4=O)CC2)CC1` (stereo not drawn) [Example E158] yielded an IC50 of 15.3 nM.

`COc1cc(N2CCC3(CCN(CCCC#Cc4cccc5c4CN(C4CCC(=O)NC4=O)C5=O)CC3)CC2)c(C)cc1Nc1ncc(Br)c(Nc2ccc3ccccc3c2P(C)(C)=O)n1` (stereo not drawn) [Example E12] registered an IC50 of 24.8 nM.

The next assay relates to BaF3 (EGFR WT). In words: Cell proliferation IC50 assay (Cell Titer GLO), BaF3 WT cells. The format is cell-based. The note with it: Mus musculus, Ba/F3 EGFR, Table 5, 10 ng/ml EGF, 72 h. An outline of the steps:
(§4)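 Growth inhibition is measured over 72 h of continuous compound treatment in cells seeded at 2000-4000 per well.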
`COc1cc(N2CCC3(CCN(CCCC#Cc4cccc5c4CN(C4CCC(=O)NC4=O)C5=O)CC3)CC2)c(C)cc1Nc1ncc(Br)c(Nc2ccc3ccccc3c2P(C)(C)=O)n1` (stereo not drawn) [Example E12] returned an IC50 above 4000 nM.

The assay is the same for the next values; noted with them: Mus musculus, Ba/F3 EGFR, Table 6, 10 ng/ml EGF, 72 h.
Molecule `CCc1cc(Nc2ncc(-c3cnn(C)c3)c(Nc3ccccc3P(C)(C)=O)n2)c(OC)cc1N1CCC(N2CCN(CCOc3cccc4c3CN(C3CCC(=O)NC3=O)C4=O)CC2)CC1` (stereo not drawn) [Example E158] returned an IC50 of 730 nM.

The subject of the next assay is BaF3 (EGFR L858R/T790M/C797S). In words: Cell proliferation IC50 assay (Cell Titer GLO), BaF3 LTC cells. The format is cell-based. The note with it: Mus musculus, Ba/F3 EGFR, Table 5, 72 h. The essentials: as §4
As to `COc1cc(N2CCC3(CCN(CCCC#Cc4cccc5c4CN(C4CCC(=O)NC4=O)C5=O)CC3)CC2)c(C)cc1Nc1ncc(Br)c(Nc2ccc3ccccc3c2P(C)(C)=O)n1` (stereo not drawn) [Example E12], the IC50 is 111 nM.

Still in this assay, the particulars now being: Mus musculus, Ba/F3 EGFR, Table 6, 72 h.
Take `CCc1cc(Nc2ncc(-c3cnn(C)c3)c(Nc3ccccc3P(C)(C)=O)n2)c(OC)cc1N1CCC(N2CCN(CCOc3cccc4c3CN(C3CCC(=O)NC3=O)C4=O)CC2)CC1` (stereo not drawn) [Example E158]: the IC50 was 2760 nM.

A further assay relates to BaF3 (EGFR Del19/T790M/C797S). In words: Cell proliferation IC50 assay (Cell Titer GLO), BaF3 DTC cells. The format is cell-based. The note with it: Mus musculus, Ba/F3 EGFR-Del19/T790M/C797S, Table 5, 72 h. The essentials:
as §4
Turning to `COc1cc(N2CCC3(CCN(CCCC#Cc4cccc5c4CN(C4CCC(=O)NC4=O)C5=O)CC3)CC2)c(C)cc1Nc1ncc(Br)c(Nc2ccc3ccccc3c2P(C)(C)=O)n1` (stereo not drawn) [Example E12], the IC50 came out at 18.3 nM.

Staying with this assay, now noted: Mus musculus, Ba/F3 EGFR-Del19/T790M/C797S, Table 6, 72 h.
With `CCc1cc(Nc2ncc(-c3cnn(C)c3)c(Nc3ccccc3P(C)(C)=O)n2)c(OC)cc1N1CCC(N2CCN(CCOc3cccc4c3CN(C3CCC(=O)NC3=O)C4=O)CC2)CC1` (stereo not drawn) [Example E158], the IC50 turned out to be 33 nM.

The test system of a further assay is A431. In words: Cell proliferation IC50 assay (Cell Titer GLO), A431 cells. As to conditions: Homo sapiens, A-431; Table 5; A431, 72 h; read-out: A431 IC50. The format is cell-based. The essentials: as §4
On to `COc1cc(N2CCC3(CCN(CCCC#Cc4cccc5c4CN(C4CCC(=O)NC4=O)C5=O)CC3)CC2)c(C)cc1Nc1ncc(Br)c(Nc2ccc3ccccc3c2P(C)(C)=O)n1` (stereo not drawn) [Example E12], for which the IC50 was above 4000 nM.

Staying with this assay, now noted: Homo sapiens, A-431; Table 6; A431, 72 h; read-out: A431 IC50.
`CCc1cc(Nc2ncc(-c3cnn(C)c3)c(Nc3ccccc3P(C)(C)=O)n2)c(OC)cc1N1CCC(N2CCN(CCOc3cccc4c3CN(C3CCC(=O)NC3=O)C4=O)CC2)CC1` (stereo not drawn) [Example E158]: the IC50 is at least 1200 nM.

For another assay, the target named is T1, BaF3 (EGFR Del19/C797S) (Homo sapiens, UniProt P00533, C797S, cells depend on it, form not given).
T1 construct: BaF3 (EGFR Del19/C797S)|DC|RPMI1640 + 10% FBS
T1 sequence (P00533 with tags, fused parts or gaps DEL746-750/C797S, form open): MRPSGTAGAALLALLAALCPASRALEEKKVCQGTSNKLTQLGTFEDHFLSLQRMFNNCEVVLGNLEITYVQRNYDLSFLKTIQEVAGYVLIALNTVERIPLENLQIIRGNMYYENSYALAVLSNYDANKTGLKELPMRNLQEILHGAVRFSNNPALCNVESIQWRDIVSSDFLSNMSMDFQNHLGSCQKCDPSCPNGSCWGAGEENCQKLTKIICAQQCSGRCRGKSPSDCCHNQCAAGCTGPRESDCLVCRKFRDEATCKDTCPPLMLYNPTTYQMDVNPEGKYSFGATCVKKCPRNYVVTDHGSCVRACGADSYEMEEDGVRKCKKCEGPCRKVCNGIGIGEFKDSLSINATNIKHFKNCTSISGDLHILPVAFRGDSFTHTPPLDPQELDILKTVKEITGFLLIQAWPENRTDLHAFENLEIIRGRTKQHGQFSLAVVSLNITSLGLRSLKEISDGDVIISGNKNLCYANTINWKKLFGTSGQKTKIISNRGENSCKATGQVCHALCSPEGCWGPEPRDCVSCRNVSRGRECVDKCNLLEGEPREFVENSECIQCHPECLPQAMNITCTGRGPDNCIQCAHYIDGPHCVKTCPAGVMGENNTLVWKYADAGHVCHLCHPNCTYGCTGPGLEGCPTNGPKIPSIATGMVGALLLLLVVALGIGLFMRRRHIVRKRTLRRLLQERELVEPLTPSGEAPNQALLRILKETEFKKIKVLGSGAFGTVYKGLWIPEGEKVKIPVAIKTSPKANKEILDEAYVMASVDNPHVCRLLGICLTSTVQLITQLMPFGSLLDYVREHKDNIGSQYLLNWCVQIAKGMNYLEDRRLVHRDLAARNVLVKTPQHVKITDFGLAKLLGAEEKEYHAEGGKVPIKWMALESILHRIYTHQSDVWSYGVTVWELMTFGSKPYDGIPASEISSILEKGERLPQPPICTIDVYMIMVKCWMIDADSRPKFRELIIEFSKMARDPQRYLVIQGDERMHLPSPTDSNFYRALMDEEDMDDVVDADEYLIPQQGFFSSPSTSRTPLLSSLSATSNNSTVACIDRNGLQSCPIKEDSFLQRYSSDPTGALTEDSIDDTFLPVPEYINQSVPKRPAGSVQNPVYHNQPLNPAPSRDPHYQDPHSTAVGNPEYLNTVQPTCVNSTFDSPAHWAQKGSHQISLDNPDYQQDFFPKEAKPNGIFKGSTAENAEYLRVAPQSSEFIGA
In words: Cell proliferation IC50 assay (Cell Titer GLO), BaF3 DC cells. As to conditions: Table 7, 72 h. The format is cell-based, mouse. An outline of the steps: as §4
`CCc1cc(Nc2ncc(-c3cnn(C)c3)c(Nc3ccccc3P(C)(C)=O)n2)c(OC)cc1N1CCC(N2CCN(CCOc3cccc4c3CN(C3CCC(=O)NC3=O)C4=O)CC2)CC1` (stereo not drawn) [Example E158]: the IC50 was 0.1 nM.

The molecule `COc1cc(N2CCC3(CCN(CCCC#Cc4cccc5c4CN(C4CCC(=O)NC4=O)C5=O)CC3)CC2)c(C)cc1Nc1ncc(Br)c(Nc2ccc3ccccc3c2P(C)(C)=O)n1` (stereo not drawn) [Example E12] displayed an IC50 of 16.2 nM.

The target in a further assay is BaF3 (EGFR L858R) (Homo sapiens, UniProt P00533, L858R, cells depend on it). In words: Cell proliferation IC50 assay (Cell Titer GLO), BaF3 L cells. In kind it is cell-based, mouse. As to conditions: Table 7, 72 h. How it is done: as §1, §2, §3
BaF3 (EGFR L858R), sequence (P00533 whole entry L858R): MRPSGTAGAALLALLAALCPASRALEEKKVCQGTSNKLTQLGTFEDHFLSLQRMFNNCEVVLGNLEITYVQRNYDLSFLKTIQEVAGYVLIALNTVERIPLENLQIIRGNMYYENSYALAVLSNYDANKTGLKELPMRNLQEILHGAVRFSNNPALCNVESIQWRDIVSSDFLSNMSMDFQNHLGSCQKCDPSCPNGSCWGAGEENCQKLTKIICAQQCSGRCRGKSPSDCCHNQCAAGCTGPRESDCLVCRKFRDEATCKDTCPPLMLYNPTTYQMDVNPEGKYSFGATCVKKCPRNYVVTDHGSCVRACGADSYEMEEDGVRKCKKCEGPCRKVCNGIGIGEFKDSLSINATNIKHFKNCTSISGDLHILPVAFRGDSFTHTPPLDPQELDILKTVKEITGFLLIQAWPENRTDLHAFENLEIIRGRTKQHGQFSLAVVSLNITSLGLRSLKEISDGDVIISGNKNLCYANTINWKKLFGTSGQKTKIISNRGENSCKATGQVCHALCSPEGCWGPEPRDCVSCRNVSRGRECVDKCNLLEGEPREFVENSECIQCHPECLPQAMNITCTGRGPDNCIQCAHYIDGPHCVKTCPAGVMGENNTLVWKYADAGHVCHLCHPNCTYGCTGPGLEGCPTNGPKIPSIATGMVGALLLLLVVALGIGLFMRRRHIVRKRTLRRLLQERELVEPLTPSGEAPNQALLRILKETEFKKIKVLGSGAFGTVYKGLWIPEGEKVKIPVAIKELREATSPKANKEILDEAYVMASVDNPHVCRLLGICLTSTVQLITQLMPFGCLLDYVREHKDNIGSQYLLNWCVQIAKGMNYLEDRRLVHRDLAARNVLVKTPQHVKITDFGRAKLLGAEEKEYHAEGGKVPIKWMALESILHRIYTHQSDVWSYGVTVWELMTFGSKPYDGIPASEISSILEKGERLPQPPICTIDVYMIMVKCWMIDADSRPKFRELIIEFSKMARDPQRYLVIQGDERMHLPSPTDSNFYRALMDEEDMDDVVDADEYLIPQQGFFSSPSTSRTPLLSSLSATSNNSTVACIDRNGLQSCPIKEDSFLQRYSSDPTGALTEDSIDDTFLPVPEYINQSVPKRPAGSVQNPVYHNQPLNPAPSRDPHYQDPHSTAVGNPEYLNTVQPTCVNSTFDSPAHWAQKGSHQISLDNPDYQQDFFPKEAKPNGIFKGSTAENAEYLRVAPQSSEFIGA
In the case of `CCc1cc(Nc2ncc(-c3cnn(C)c3)c(Nc3ccccc3P(C)(C)=O)n2)c(OC)cc1N1CCC(N2CCN(CCOc3cccc4c3CN(C3CCC(=O)NC3=O)C4=O)CC2)CC1` (stereo not drawn) [Example E158], the concentration for 50% growth inhibition (GI50) is 0.6 nM.

In turn, `COc1cc(N2CCC3(CCN(CCCC#Cc4cccc5c4CN(C4CCC(=O)NC4=O)C5=O)CC3)CC2)c(C)cc1Nc1ncc(Br)c(Nc2ccc3ccccc3c2P(C)(C)=O)n1` (stereo not drawn) [Example E12] registered a GI50 of 37.8 nM.

The next assay has as its target BaF3 (EGFR L858R/C797S) (Homo sapiens, UniProt P00533, C797S/L858R, cells depend on it). In words: Cell proliferation IC50 assay (Cell Titer GLO), BaF3 LC cells. In kind it is cell-based, mouse. The note with it: Table 7, 72 h. The procedure:
as §1, §2, §3
Regarding `CCc1cc(Nc2ncc(-c3cnn(C)c3)c(Nc3ccccc3P(C)(C)=O)n2)c(OC)cc1N1CCC(N2CCN(CCOc3cccc4c3CN(C3CCC(=O)NC3=O)C4=O)CC2)CC1` (stereo not drawn) [Example E158], the GI50 is 1.3 nM.

With `COc1cc(N2CCC3(CCN(CCCC#Cc4cccc5c4CN(C4CCC(=O)NC4=O)C5=O)CC3)CC2)c(C)cc1Nc1ncc(Br)c(Nc2ccc3ccccc3c2P(C)(C)=O)n1` (stereo not drawn) [Example E12], halving of growth (GI50) required 106 nM.

Another assay deals with BaF3 (EGFR Del19) (Homo sapiens, UniProt P00533, cells depend on it, form not given). In words: Cell proliferation IC50 assay (Cell Titer GLO), BaF3 D cells. As to conditions: Table 7, 72 h. The format is cell-based, mouse. How it is done: as §1, §2, §3
BaF3 (EGFR Del19), sequence (P00533 with tags, fused parts or gaps DEL746-750): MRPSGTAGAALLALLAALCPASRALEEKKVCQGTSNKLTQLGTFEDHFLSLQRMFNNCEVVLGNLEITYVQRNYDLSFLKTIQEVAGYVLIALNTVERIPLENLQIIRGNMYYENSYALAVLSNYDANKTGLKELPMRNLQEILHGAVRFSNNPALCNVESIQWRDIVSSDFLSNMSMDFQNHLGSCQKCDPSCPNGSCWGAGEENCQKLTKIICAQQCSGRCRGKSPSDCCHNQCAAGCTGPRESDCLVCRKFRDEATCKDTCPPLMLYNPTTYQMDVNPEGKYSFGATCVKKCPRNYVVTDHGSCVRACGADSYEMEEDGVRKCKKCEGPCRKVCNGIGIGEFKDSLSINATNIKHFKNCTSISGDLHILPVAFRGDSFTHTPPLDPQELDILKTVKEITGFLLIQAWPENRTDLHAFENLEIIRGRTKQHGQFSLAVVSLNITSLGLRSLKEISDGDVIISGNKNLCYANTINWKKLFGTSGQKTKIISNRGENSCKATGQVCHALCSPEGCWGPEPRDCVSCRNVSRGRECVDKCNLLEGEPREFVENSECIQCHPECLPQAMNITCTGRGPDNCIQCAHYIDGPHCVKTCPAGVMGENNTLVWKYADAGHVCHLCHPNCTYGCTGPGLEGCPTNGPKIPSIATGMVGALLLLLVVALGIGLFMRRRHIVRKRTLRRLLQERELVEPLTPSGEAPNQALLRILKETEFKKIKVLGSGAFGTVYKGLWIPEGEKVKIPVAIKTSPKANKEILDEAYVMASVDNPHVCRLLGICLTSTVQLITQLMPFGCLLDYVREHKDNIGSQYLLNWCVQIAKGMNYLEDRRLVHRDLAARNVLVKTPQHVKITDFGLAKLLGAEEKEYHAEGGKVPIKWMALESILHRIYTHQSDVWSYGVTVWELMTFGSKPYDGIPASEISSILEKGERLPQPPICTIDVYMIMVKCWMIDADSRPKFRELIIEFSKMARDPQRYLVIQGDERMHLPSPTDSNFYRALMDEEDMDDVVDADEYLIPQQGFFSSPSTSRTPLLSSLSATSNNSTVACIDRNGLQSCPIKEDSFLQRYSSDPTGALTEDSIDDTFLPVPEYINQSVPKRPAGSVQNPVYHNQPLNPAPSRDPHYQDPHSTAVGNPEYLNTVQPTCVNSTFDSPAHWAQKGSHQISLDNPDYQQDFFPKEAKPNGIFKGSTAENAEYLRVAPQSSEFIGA
Consider `CCc1cc(Nc2ncc(-c3cnn(C)c3)c(Nc3ccccc3P(C)(C)=O)n2)c(OC)cc1N1CCC(N2CCN(CCOc3cccc4c3CN(C3CCC(=O)NC3=O)C4=O)CC2)CC1` (stereo not drawn) [Example E158], for which the GI50 came to 0.2 nM.

`COc1cc(N2CCC3(CCN(CCCC#Cc4cccc5c4CN(C4CCC(=O)NC4=O)C5=O)CC3)CC2)c(C)cc1Nc1ncc(Br)c(Nc2ccc3ccccc3c2P(C)(C)=O)n1` (stereo not drawn) [Example E12] yielded a GI50 of 7.8 nM.

In the next assay the test system is BaF3 patent. In words: Cell proliferation IC50 assay (Cell Titer GLO), BaF3 parental cells. As to conditions: Mus musculus, Table 5, 10 ng/ml mIL3, 72 h. The format is cell-based. The procedure: as §1, §2, §3
Regarding `COc1cc(N2CCC3(CCN(CCCC#Cc4cccc5c4CN(C4CCC(=O)NC4=O)C5=O)CC3)CC2)c(C)cc1Nc1ncc(Br)c(Nc2ccc3ccccc3c2P(C)(C)=O)n1` (stereo not drawn) [Example E12], the IC50 is above 4000 nM.

In the next assay the test system is LT. In words: Cell proliferation IC50 assay (Cell Titer GLO), LT cells. In kind it is cell-based. As to conditions: Mus musculus; Table 7; LT cells (BaF3 with EGFR mutant), 72 h. The procedure: as §1, §2, §3
For the molecule `CCc1cc(Nc2ncc(-c3cnn(C)c3)c(Nc3ccccc3P(C)(C)=O)n2)c(OC)cc1N1CCC(N2CCN(CCOc3cccc4c3CN(C3CCC(=O)NC3=O)C4=O)CC2)CC1` (stereo not drawn) [Example E158], half-maximal inhibition (IC50) was put at 69.1 nM.

Molecule `COc1cc(N2CCC3(CCN(CCCC#Cc4cccc5c4CN(C4CCC(=O)NC4=O)C5=O)CC3)CC2)c(C)cc1Nc1ncc(Br)c(Nc2ccc3ccccc3c2P(C)(C)=O)n1` (stereo not drawn) [Example E12] displayed an IC50 of 36 nM.
